Measured values from patent US11464771B2, “Bromodomain and extra-terminal protein inhibitor combination therapy” (CELGENE QUANTICEL RESEARCH, INC., priority 2016, dated 2022).
Entries after “also recorded” stand apart in the source; their conditions may differ.

How the values were obtained:
[1] = Plasma protein binding, preclinical species; format: in vitro ADME; conditions: plasmas of preclinical species
[2] = Plasma protein binding, human; format: in vitro ADME
[3] = biological target: CYP3A4 (Homo sapiens, UniProt P08684); experiment: CYP3A4 inhibition in vitro; format: in vitro ADME
Sequence of CYP3A4 (P08684 whole entry): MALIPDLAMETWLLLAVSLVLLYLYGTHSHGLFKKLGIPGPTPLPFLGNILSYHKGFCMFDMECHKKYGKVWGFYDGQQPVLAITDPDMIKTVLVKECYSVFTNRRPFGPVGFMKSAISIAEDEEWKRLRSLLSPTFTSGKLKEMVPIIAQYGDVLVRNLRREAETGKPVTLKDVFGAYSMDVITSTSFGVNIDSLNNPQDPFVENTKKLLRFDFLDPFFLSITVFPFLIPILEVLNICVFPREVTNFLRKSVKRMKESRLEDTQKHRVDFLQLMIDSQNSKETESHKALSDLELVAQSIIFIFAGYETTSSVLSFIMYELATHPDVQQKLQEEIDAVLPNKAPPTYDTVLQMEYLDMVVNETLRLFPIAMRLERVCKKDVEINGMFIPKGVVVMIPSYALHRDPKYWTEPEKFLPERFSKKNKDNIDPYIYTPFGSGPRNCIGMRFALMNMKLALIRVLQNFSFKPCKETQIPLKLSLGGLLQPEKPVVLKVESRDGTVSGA
Description: (§1) Compound A has minimal potential to cause drug-drug interactions with co-administered drugs that are CYP substrates.

[4] = Tumor concentrations in COH70 model; format: in vivo, mice; conditions: 2 hr post-dose
Protocol: (§2) Corresponding tumor concentrations of Compound A were determined in the COH70 model at 2, 4, and 8 hrs post-dose. Maximally-measured tumor levels of Compound A were at 2 hr post-dose and were […] and 6.7±1.7 μM at 2 mg/kg and 10 mg/kg, respectively. Modulation of MYC expression levels correlated with intra-tumor concentrations of Compound A.

[5] = Cardiovascular and respiratory safety pharmacology in conscious dogs; format: in vivo; conditions: conscious Beagle dogs; GLP 4-week study
Protocol: Safety pharmacology evaluations were performed to determine the potential cardiovascular and respiratory effects of Compound A in conscious Beagle dogs as part of the GLP 4-week repeat-dose toxicity study.

[6] = Functional observational battery (FOB) in 4-week rat study; format: in vivo, rats; conditions: GLP 4-week repeat-dose rat study
Protocol: Safety pharmacology evaluations, i.e., functional observational battery (FOB), were also performed to determine the potential central nervous system effects of Compound A as part of the GLP 4-week repeat-dose toxicity rat study.

[7] = tested on: COH69 TNBC PDX-derived model; experiment: 3-D Matrigel colony formation, COH69; format: cell-based; conditions: Homo sapiens, 7 or 14 days
Protocol: (§3) The effect of Compound A on colony formation in four PDX-derived breast cancer models was assessed using a 3-D Matrigel-based in vitro culture system. Compound A was tested at concentrations ranging from either 0.008 μM to 5 μM or 0.0016 μM to 1 μM in 5-fold increments. Colony formation was assessed after 7 days or 14 days of treatment by quantifying colony numbers by microscopy. […] The overall mean for the three TNBC models was 0.11±0.04 μM.

[8] = biological target: CYP1A2 (Homo sapiens, UniProt P05177); experiment: CYP1A2 inhibition in vitro; format: in vitro ADME
Sequence of CYP1A2 (P05177 whole entry): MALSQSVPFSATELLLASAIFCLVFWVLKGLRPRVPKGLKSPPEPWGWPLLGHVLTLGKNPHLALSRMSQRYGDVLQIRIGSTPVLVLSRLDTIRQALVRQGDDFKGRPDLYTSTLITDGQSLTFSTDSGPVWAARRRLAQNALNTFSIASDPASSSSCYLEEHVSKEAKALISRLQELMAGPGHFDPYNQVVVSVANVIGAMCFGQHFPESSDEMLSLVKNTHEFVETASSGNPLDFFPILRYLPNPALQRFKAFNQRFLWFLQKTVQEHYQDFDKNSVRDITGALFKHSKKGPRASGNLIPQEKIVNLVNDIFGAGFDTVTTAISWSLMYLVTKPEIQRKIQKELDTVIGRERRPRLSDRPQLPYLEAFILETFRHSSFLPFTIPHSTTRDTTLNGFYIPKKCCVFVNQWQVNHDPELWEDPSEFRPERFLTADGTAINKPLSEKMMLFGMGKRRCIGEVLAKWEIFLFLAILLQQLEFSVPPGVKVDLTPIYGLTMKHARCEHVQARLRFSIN
Description: as §1

[9] = tested on: MYC expression in COH70 TNBC PDX tumor; experiment: MYC down-regulation in COH70 tumors in mice; format: in vivo
Protocol: as §2

[10] = tested on: CYP2B6; experiment: CYP2B6 induction in hepatocytes; format: in vitro ADME; conditions: up to 10 μM
Description: as §1

[11] = tested on: MYC gene expression in Raji Burkitt's lymphoma cells; experiment: qRT PCR of MYC gene expression; format: cell-based; conditions: Homo sapiens, mean, read-out: IC50, inhibition of MYC gene expression
Protocol: (§4) Regulation of MYC gene expression by BRD4 has been shown in models of Burkitt's lymphoma with inhibition of BRD4, leading to growth arrest (Mertz, 2011). Similarly, in a model of lung adenocarcinoma. BRD4 inhibition was also found to be antiproliferative; however, this effect was ascribed to FOSL1 down-regulation (Lockwood, 2012). […] (Tang, 2014). The effect of Compound A treatment on MYC FOSL1, and GLI1 gene expression was evaluated by quantitative reverse transcription polymerase chain reaction (qRT PCR).

[12] = tested on: TNBR3 TNBC PDX-derived model; experiment: 3-D Matrigel colony formation, TNBR3; format: cell-based; conditions: Homo sapiens, 7 or 14 days
Protocol: as §3

[13] = GLP 4-week oral toxicity study in Beagle dogs; format: in vivo
Protocol: Compound A was evaluated in non-GLP exploratory toxicology and genetic toxicology studies, and in GLP repeat-dose (≤4-week nonclinical toxicology) studies. GLP 4-week oral toxicity studies (with a 4-week recovery period) were conducted in rats (0, 5, 10, or 20 mg base/kg/dose for females, and 0, 15, 30, or 60 mg base/kg/dose for males), and Beagle dogs (0, 1.75, 3.75, or 7.5 mg base/kg/dose). The dosing schedule was once daily administration for 3 consecutive days followed by 4 consecutive days off drug each week for a total of 4 weeks.
In the 4-week Beagle dog study, the severely toxic dose was 7.50 mg base/kg/dose. […] There were no Compound A-related mortalities at doses below 7.50 mg base/kg/dose, but there were Compound A-related findings at all doses evaluated.
These values apply to the 3-days-on/4-days-off dose schedule.

[14] = Body weight change in GBM15 study; format: in vivo, mice
Protocol: In a GBM PDX subcutaneous model. […] Mice bearing tumors were dosed orally QD on several schedules with the cumulative weekly Compound A dose on each schedule equal to 75 mg/kg.

[15] = tested on: GLI1 gene expression in MIA-PaCa-2 pancreatic adenocarcinoma cells; experiment: qRT PCR of GLI1 gene expression; format: cell-based; conditions: Homo sapiens, read-out: IC50, inhibition of GLI1 gene expression
Protocol: as §4

[16] = tested on: COH70 TNBC PDX subcutaneous tumor; experiment: Tumor growth inhibition in TNBC PDX model COH70; format: in vivo, NSG mice; conditions: Day 38
Protocol: FIG. 1 is a graph showing dose-dependent tumor growth inhibition as measured by tumor volume in a TNBC PDX model, COH70, following dosing with Compound A (4-[2-(cyclopropylmethoxy)-5-methylsulfonylphenyl]-2-methylisoquinolin-1-one). Compound A dosing by mouth (PO) once daily for 3 consecutive days, followed by 4 days off (3×/week); —— Vehicle; - - - - Compound A 12.5 mg/kg PO 3×/week; —— —— Compound A 16 mg/kg PO 3×/week; - —— - —— Compound A 20 mg/kg PO 3×/week; SEM is the standard error of the mean.

[17] = Brain distribution in tumor-bearing mice; format: in vivo; conditions: mouse, tumor-bearing NSG mice, read-out: brain to plasma ratio
[18] = Excretion of intact drug after IV administration in rats; format: in vivo; conditions: average
[19] = both, Beagle, dog, in vivo, 4 weeks

With Cn1cc(-c2cc(S(C)(=O)=O)ccc2OCC2CC2)c2ccccc2c1=O [Compound A, 4-[2-(cyclopropylmethoxy)-5-methylsulfonylphenyl]-2-methylisoquinolin-1-one] the fraction unbound [1] was 0.067 to 0.101, the fraction unbound [2] was 0.098 and the “inhibition of CYP3A4” value [3] was “does not inhibit”. For the same compound, the maximally-measured tumor level ([4]; 2 mg/kg) was 1.3 ± 0.3 µM, the concentration at 2 hr ([4]; mouse, tumor, 10 mg/kg, read-out: maximally-measured tumor level) was 6.7 ± 1.7 µM and the “effects on electrocardiograms, heart rate, or respiratory rate” value [5] was “no Compound A-related effects”. The FOB effects [6] was “no Compound A-related FOB effects”, the IC50 [7] was 70 nM and the “inhibition of CYP1A2” value [8] was “does not inhibit”. The “maximal suppression of MYC expression” value ([9]; 2 mg/kg, at 2 hr, rebound to control by 8 hr) was 51.3%, the “maximal suppression of MYC expression” value ([9]; 10 mg/kg, at 4 hr, no rebound by 24 hr) was 63.4% and the “induction of CYP2B6” value [10] was “not an inducer; also recorded: did not induce”. The IC50 [11] was 60 nM, the IC50 [12] was 80 nM and the “mean exposure corresponding to the dog HNSTD” value ([13]; Beagle, dog, in vivo) was 10000 ng·h/mL. The “accumulation after repeat dosing” value ([13]; Beagle, dog, in vivo, 4 weeks) was “up to 3 fold”, the “Dog HNSTD” value ([13]; Table 3) was 3.75 mg base/kg and the HED [13, 19] was 2.1 mg base/kg. For the same compound, the “HED/Safety Factor” value [13, 19] was 21 mg base, the severely toxic dose [13, 19] was 7.50 mg base/kg/dose and the NOAEL ([13]; dogs) was “no NOAEL was identified”. For the same compound, the “highest non-severely toxic dose (HNSTD)” value ([13]; dogs, 3 days on/4 days off) was 3.75 mg base/kg/dose, the weight loss ([14]; 15 mg/kg/dose group) was −6.6% and the weight loss ([14]; 25 mg/kg/dose group) was −3.7%. For the same compound, the weight loss ([14]; 37.5 mg/kg/dose group) was −3.1%, the IC50 [15] was 240 nM and the “mean percent TGI” value ([16]; 12.5 mg/kg PO QD 3 days on/4 days off) was 64%. The “mean percent TGI” value ([16]; 16 mg/kg PO QD 3 days on/4 days off) was 68%, the “mean percent TGI” value ([16]; 20 mg/kg PO QD 3 days on/4 days off) was 72% and the Kp [17] was 0.14 to 0.16. The “dose excreted intact in bile or urine” value [18] was 0.9 % of the dose.
